Patent publication US12551573B2, “Compositions and methods for the targeting of PCSK9” (Scribe Therapeutics Inc., priority 2022, dated 2026)

Test system: human PCSK9 locus
Assay: Secreted PCSK9 by ELISA (normalized to total cell count) in Huh7 cells transfected with mRNA and gRNA
Format: cell-based
Conditions: paired with LTRP5-ADD-ZIM3 mRNA; for Secreted PCSK9 / Percent reduction in PCSK9 secretion / Average percent reduction in PCSK9 secretion: Huh7 cells, 6 days post-transfection; for Secreted PCSK9: normalized to total cell count; for Percent reduction in PCSK9 secretion: relative to non-targeting gRNA control; for Average percent reduction in PCSK9 secretion: averaged from the two doses
Experimental: To assess PCSK9 secretion, seeded Huh7 cells were transfected with mRNA encoding a catalytically-active CasX 676, dXR1, or LTRP5-ADD-ZIM3 and a gRNA with scaffold 316 and spacer targeting either the B2M or PCSK9 locus. Media supernatant was harvested at 6, 18, 36, and 87 days post-transfection to assess level of PCSK9 secretion by ELISA. Levels of PCSK9 secretion were normalized to total cell count. As an additional control, PCSK9 secretion was also measured in the media supernatant harvested from wells containing untreated, naïve cells.
The following three human hepatocyte cancer cell lines were used in this experiment: HepG2 cells, Hep3B cells, and Huh7 cells. ˜15,000 cells of each cell line were seeded per well; the next day, seeded cells were transfected with mRNA encoding a catalytically-active CasX 676, dXR1, or LTRP5-ADD-ZIM3 and a gRNA with scaffold 316 and spacer targeting either the B2M or PCSK9 locus (see Table 23 for specific spacers and sequences). Media supernatant was harvested at 4 days post-transfection to assess level of PCSK9 secretion by ELISA, and levels of PCSK9 secretion were normalized to total cell count and illustrated in FIGS. 11A-11C. Culturing of treated Huh7 cells continued, and media supernatant was harvested at 14 and 27 days post-transfection for measuring PCSK9 secretion by ELISA. As an additional experimental control, PCSK9 secretion was also measured in the media supernatant harvested from wells containing untreated, naïve cells.
To assess PCSK9 secretion, seeded Huh7 cells were co-transfected with mRNA encoding for LTRP5-ADD-ZIM3 and a gRNA with scaffold 316 and spacer targeting the PCSK9 locus using Lipofectamine™ 3000. Two doses of total RNA input at a 2:1 mass ratio of mRNA to gRNA were used for screening: 50 ng mRNA: 25 ng gRNA and 25 ng mRNA: 12.5 ng gRNA. Media supernatant was harvested at 6 days post-transfection to assess level of PCSK9 secretion by ELISA (Table 74). Levels of PCSK9 secretion were normalized to total cell count. As an additional control, PCSK9 secretion was also measured in the media supernatant harvested from cells transfected with mRNA encoding for mScarlet.

Substance	Secreted PCSK9 (25 ng mRNA:12.5 ng gRNA) [ng/mL]	Percent reduction in PCSK9 secretion (25 ng mRNA:12.5 ng gRNA) [%]	Secreted PCSK9 (50 ng mRNA:25 ng gRNA) [ng/mL]	Percent reduction in PCSK9 secretion (50 ng mRNA:25 ng gRNA) [%]	Average percent reduction in PCSK9 secretion [%]	repression of PCSK9 secretion by spacer (Huh7, scaffold 316, days 4, 14, 27)
UGGGUCCACCUUGUCUCCUG (listed as RNA, chemistry not given here) [spacer 6.145, Promoter]	18.54	73.98	15.8	80.8	77.39	–
GCCGGGCCCACCUUUUCAGU (listed as RNA, chemistry not given here) [spacer 6.148, Promoter]	44.77	37.16	71.46	13.15	25.15	–
GGAGCAGGGCGCGUGAAGGG (listed as RNA, chemistry not given here) [spacer 6.158, Exon 1]	31.72	55.48	9.39	88.59	72.03	–
TG-06-348 (guide AGGCAUUCACUCCUUCACCC; listed as RNA, chemistry not given here)	35.55	50.1	23.14	71.88	60.99	–
GCCUCGCCCUCCCCAAACAG (listed as RNA, chemistry not given here) [spacer 6.152, Promoter]	57.43	19.39	36.95	55.09	37.24	–
UUUUACACACCAUGUUCAAG (listed as RNA, chemistry not given here) [spacer 6.129, Promoter]	90.82	27.47	59.93	27.16	0.16	–
GUGGGCAGCGAGGAGUCCAC (listed as RNA, chemistry not given here) [spacer 6.144, Promoter]	29	59.29	23.42	71.53	65.41	–
GGGUCUGAGCCUGGAGGAGU (listed as RNA, chemistry not given here) [spacer 6.157, Exon 1]	32.4	54.53	12.32	85.03	69.78	most effective repression of PCSK9 secretion
CUCGGAAUCUGCUGUGCAUC (listed as RNA, chemistry not given here) [spacer 6.120, Promoter]	47.97	32.67	21.43	73.95	53.31	–
GCAGCGACGUCGAGGCGCUC (listed as RNA, chemistry not given here) [spacer 6.155, Exon 1]	56.36	20.89	29.45	64.21	42.55	–
UCCUCCUGCCUGGUACACAA (listed as RNA, chemistry not given here) [spacer 6.127, Promoter]	49.1	31.08	22.57	72.56	51.82	–
TG-06-346 (guide CCCACCUGUGCCGCGGCGAG; listed as RNA, chemistry not given here)	81.63	14.58	77.02	6.39	4.09	–
AGAAAUCAACUGGACAAGCA (listed as RNA, chemistry not given here) [spacer 6.128, Promoter]	62.29	12.57	42.21	48.7	30.63	–
GCUCCUGCACAGUCCUCCCC (listed as RNA, chemistry not given here) [spacer 6.161, Exon 1]	53.16	25.38	29.55	64.08	44.73	–
CGCGCCCUGCUCCUGAACUU (listed as RNA, chemistry not given here) [spacer 6.160, Exon 1]	48.67	31.69	20.63	74.93	53.31	–
CCUUUUCAUCCUCCUGCCUG (listed as RNA, chemistry not given here) [spacer 6.126, Promoter]	44.82	37.09	23.48	71.46	54.27	–
GUGCUCGGGUGCUUCGGCCA (listed as RNA, chemistry not given here) [spacer 6.5, Exon 1]	76.37	7.19	67.08	18.47	5.64	–
GGAAAGCUGAGCUUGUGCCU (listed as RNA, chemistry not given here) [spacer 6.135, Promoter]	44.59	37.42	25.66	68.82	53.12	–
UCCCUCUGCGCGUAAUCUGA (listed as RNA, chemistry not given here) [spacer 6.150, Promoter]	39.59	44.42	18.33	77.73	61.08	–
TG-06-343 (guide CCCCAUGUAAGAGAGGAAGU; listed as RNA, chemistry not given here)	75.55	6.04	62.8	23.67	8.82	–
Non-targeting (guide CGAGACGTAATTACGTCTCG; chemistry not given here)	71.24	0	82.28	0	0	–
ACUUUGUUUGCAAAGACCUC (listed as RNA, chemistry not given here) [spacer 6.117, Promoter]	98.05	37.62	68.98	16.16	10.73	–
TG-06-344 (guide CAGUUUCUGCCUCGCCGCGG; listed as RNA, chemistry not given here)	76.43	7.28	82.29	0.01	3.64	–
TG-06-342 (guide AAUUACAGGCAACAGGAAGG; listed as RNA, chemistry not given here)	75.23	5.6	51.55	37.34	15.87	–
